Laboratory results from patent US20210000727A1, “DITHIAZOCANE COMPOUNDS FOR THE COSMETIC USE THEREOF” (L'OREAL, priority 2017, published 2021).

Legend:
[1] = system: coculture of keratinocytes and melanocytes; assay: Coculture experiment: melanogenesis-modulating effect and cytotoxicity; format: cell-based; details: for IC50: melanin optical density, read-out: IC50 (concentration for which 50% of the melanin synthesis is inhibited)
Experimental: The melanogenesis-modulating effect of compound 1 was measured according to the method described in patent FR-A-2734825, and also in the article by R. Schmidt, P. Krien and M. Régnier, Anal. Biochem., 235(2), 113-18, 1996. This test is performed on a coculture of keratinocytes and melanocytes.
The following were determined for the test compound: • the cytotoxicity, • the inhibitory activity on melanin synthesis, by estimating the melanin optical density.
The IC50 values (concentration for which 50% of the melanin synthesis is inhibited) were determined.

normal human melanocytes = assay: Depigmenting activity (reduction of melanin production) in normal human melanocytes in vitro; format: cell-based; details: Melanocyte, 72 hours incubation, optical density of melanin, maximum concentration tested 200 μM, read-out: IC50 (concentration at which a 50% decrease in melanin synthesis is achieved)
Experimental: The measurement of the depigmenting activity (reduction of melanin production) of compounds of formula (I) was performed by assaying normal human melanocytes in vitro as follows.
First of all, normal human melanocytes are cultured and dispensed into wells. After 24 hours, the culture medium was replaced with a medium containing compounds of formula (I) to be evaluated. The cells were incubated 72 hours before measurement of the final optical density, which measures the amount of melanin produced by the melanocytes. A dose effect is performed using a wide concentration range of the compounds evaluated. Thus, by making the concentrations and the melanin measurements correspond, it is possible to determine an IC50 in μM: concentration at which a 50% decrease in melanin synthesis is achieved.
Various test campaigns were conducted and the results collated in the table below.

[2] = system: pigmented reconstructed epidermis; assay: Depigmenting activity on pigmented reconstructed epidermis (melanin quantified by image analysis, Fontana Masson); format: cell-based, human; details: 300 μM in DMSO, control DMSO, Mann-Whitney test, pValue<0.05
Experimental: Compositions comprising 300 μM of compound 1 in DMSO were applied to samples of pigmented reconstructed epidermis (cf. EP 1 878 790). The control is DMSO.
The melanin was quantified by image analysis on histological slices after staining with Fontana Masson dye. Each sample of coloured epidermis is photographed over its entire length using a camera connected to a microscope. The melanin is thresholded and the number of melanin pixels is measured in each field using automated image analysis software. A non-parametric statistical test is performed in order to determine the significance of the measurements (Mann-Whitney test, see FIG. 1).
The pigmented reconstructed epidermis standard study model was published by: Regnier M, Duval C, Galey J B, Philippe M, Lagrange A, Tuloup R, Schmidt R, Cellular and Molecular Biology, 1999, 45, 7, 969-980: “Keratinocyte-Melanocyte co-cultures and pigmented reconstructed human epidermis: models to study modulation of melanogenesis”.

COC(=O)[C@@H]1CSSCC(C)(C)C(=O)N1 [Compound 2, methyl 7,7-dimethyl-6-oxo-1,2,5-dithiazocane-4(R)-carboxylate]
cytotoxicity [1]: non-cytotoxic | IC50 [1]: 740 nM | IC50 (normal human melanocytes): 13.6 µM

CC1(C)CSSC[C@@H](C(=O)O)NC1=O [Compound 1, 7,7-dimethyl-6-oxo-1,2,5-dithiazocane-4-(R)-carboxylic acid]
cytotoxicity [1]: non-cytotoxic | IC50 [1]: 9600 nM | depigmenting activity (melanin quantified by image analysis) [2]: Significant depigmenting activity | IC50 (normal human melanocytes): 62.5 µM

CC1(C)CSSCC(C(=O)NCCO)NC1=O (stereo not shown) [Compound 7′, N-(2-hydroxyethyl)-7,7-dimethyl-6-oxo-1,2,5-dithiazocane-4-carboxamide]
cytotoxicity [1]: non-cytotoxic | IC50 [1]: 1040 nM | IC50 (normal human melanocytes): < 0.4 µM

CCOC(=O)C(Cc1ccccc1)NC(=O)C1CSSCC(C)(C)C(=O)N1 (stereo not shown) [Compound 9′, ethyl N-[(7,7-dimethyl-6-oxo-1,2,5-dithiazocan-4-yl)carbonyl]phenylalaninate]
IC50 (normal human melanocytes): 20.8 µM

CCCCCCCNC(=O)C1CSSCC(C)(C)C(=O)N1 (stereo not shown) [Compound 13′, N-heptyl-7,7-dimethyl-6-oxo-1,2,5-dithiazocane-4-carboxamide]
IC50 (normal human melanocytes): 0.66 µM

CC1(C)CSSCC(C(=O)OCC(O)CO)NC1=O (stereo not shown) [Compound 18′, 2,3-dihydroxypropyl 7,7-dimethyl-6-oxo-1,2,5-dithiazocane-4-carboxylate]
IC50 (normal human melanocytes): 9.8 µM

CC1(C)CSSCC(C(N)=O)NC1=O (stereo not shown) [Compound 3′, 7,7-dimethyl-6-oxo-1,2,5-dithiazocane-4-carboxamide]
IC50 (normal human melanocytes): 2.35 µM

CCOC(=O)CNC(=O)C1CSSCC(C)(C)C(=O)N1 (stereo not shown) [Compound 8′, ethyl N-[(7,7-dimethyl-6-oxo-1,2,5-dithiazocan-4-yl)carbonyl]glycinate]
cytotoxicity [1]: non-cytotoxic | IC50 [1]: 1230 nM | IC50 (normal human melanocytes): 0.87 µM

CCOC(=O)C1CSSCC(C)(C)C(=O)N1 (stereo not shown) [Compound 5′, ethyl 7,7-dimethyl-6-oxo-1,2,5-dithiazocane-4-carboxylate]
cytotoxicity [1]: non-cytotoxic | IC50 [1]: 790 nM

CN(C)C(=O)C1CSSCC(C)(C)C(=O)N1 (stereo not shown) [Compound 4′, N,N,7,7-tetramethyl-6-oxo-1,2,5-dithiazocane-4-carboxamide]
IC50 (normal human melanocytes): 4.23 µM

COCCOCCOC(=O)C1CSSCC(C)(C)C(=O)N1 (stereo not shown) [Compound 10′, 2-(2-methoxyethoxy)ethyl 7,7-dimethyl-6-oxo-1,2,5-dithiazocane-4-carboxylate]
cytotoxicity [1]: non-cytotoxic | IC50 [1]: 7620 nM | IC50 (normal human melanocytes): 5.26 µM

CC(C)OC(=O)C1CSSCC(C)(C)C(=O)N1 (stereo not shown) [Compound 6′, propan-2-yl 7,7-dimethyl-6-oxo-1,2,5-dithiazocane-4-carboxylate]
cytotoxicity [1]: non-cytotoxic | IC50 [1]: 1570 nM | IC50 (normal human melanocytes): 1.9 µM

COCC(C)OCC(C)OCC(C)OC(=O)C1CSSCC(C)(C)C(=O)N1 (stereo not shown) [Compound 11′, 1-({1-[(1-methoxypropan-2-yl)oxy]propan-2-yl}oxy)propan-2-yl 7,7-dimethyl-6-oxo-1,2,5-dithiazocane-4-carboxylate]
IC50 (normal human melanocytes): 10.7 µM

CC1(C)CSSCC(C(=O)NCC(=O)O)NC1=O (stereo not shown) [Compound 12′, N-[(7,7-dimethyl-6-oxo-1,2,5-dithiazocan-4-yl)carbonyl]glycine]
IC50 (normal human melanocytes): 63.8 µM
